Square brackets hold non-standard residues; d marks the D form. Ends that are not written are not given here.
Columns and labels:
C57BL/6J ob/ob mice = assay: Plasma insulin radioimmunoassay after chronic administration; assay type: in vivo, mouse; conditions: after 14 days treatment
Protocol: Mice selected for this experiment were initially fasted for 4 hours, then anaesthetized with a single injection of sodium pentobarbitone (35 mg/kg). A blood sample was collected from each mouse by eye-bleed for the assessment of plasma glucose and insulin levels (day 0). Collected blood samples were stored at −20° C. until analysis was performed. A single Alzet mini-pump (#1002, Alzet, USA) containing either sterile saline (100 μl; n=14) or peptide 3 (20 μmol/kg dissolved in 100 μl saline; n=14) was inserted under the skin between the scapula of the mice. The incision was clamped and disinfected using iodine. The pumps were left for 14 days, and 5 body-weight, and food measurements were recorded during this period, at days 0, 4, 7, 10 and 14. Blood samples were collected on day 0 and 14 days post-saline (n=5) or peptide 3 (n=4) administration for plasma glucose analysis. The results reported below are expresses as mean +/− standard error. (a) Plasma insulin Plasma insulin levels were quantitatively determined in ob/ob mice, using an insulin radioimmunoassay kit (Linco Research Inc. USA) according to the manufacturer's instructions.

[1] = system: Zucker fatty (fa/fa) rats; assay: Basal blood glucose determination after i.p. peptide; assay type: in vivo, rat; conditions: 10 μmol/kg body weight i.p., over 150 min, vs saline
Protocol: Overnight-fasted Zucker fatty(fa/fa) female rats were anaesthetized with sodium pentobarbitone (60 mg/kg body weight). After 45 min, basal blood glucose samples were taken from the tail vein, followed immediately by intraperitoneal (i.p.) injection of saline (control) or the peptide analogue (test, 10 μmol/kg body weight) in 0.4 ml of saline. Blood samples were taken at 15, 30, 60, 90, 120, 150 minutes after injection, and the blood glucose level in each sample was measured immediately by the glucose oxidase method, using a YSI Model-2300 STAT glucose analyzer (Yellow Spring, Ohio). Six animals for each group were used.
The reduction of basal blood glucose levels in animals by different peptide analogues administered intraperitoneally (i.p.)at a dose of 10 μmol/kg body weight was measured for over 150 min.

[2] = system: Zucker (fa/fa) rat hemidiaphragm muscle; assay: In vitro glycogen synthesis (glucose incorporation into glycogen) in hemidiaphragm muscle with exogenous insulin; assay type: cell-based
Protocol: In vitro insulin-potentiating effects of the synthetic peptide analogues were assessed by measuring the rates of exogenous glucose incorporation into glycogen in rat hemidiaphragms (Lim et al, 1992). Hemidiaphragms from overnight-fasted Zucker fatty(fa/fa) female rats were dissected, and divided into segments of approximate 35-50 mg each. Tissues from the same rat were used for all groups. The tissue was incubated in 2 ml of Krebs-Ringer bicarbonate (KRB) buffer (pH 7.4) containing [^14C]glucose (5.5 mM, final specific activity 0.05 mCi/mmol) under an atmosphere of 95% 02-5% CO2 at 37° C. for 1.5 hr. After incubation, tissues were removed, washed with cold buffer and blotted. Tissues were digested, the muscle glycogen was precipitated and the ^14C-radioactivity was counted in a Wallac 1410 liquid scintillation counter. The biological activity of peptide analogues was measured as the rate of mmol glucose incorporation into muscle glycogen/g tissue/hr.
The sensitivity of hemidiaphragm muscle tissue to insulin (0.1-100 mU/ml) on glycogen synthesis was first analyzed. The dose response curves for peptide analogues on the insulin-potentiating effect to glycogen synthesis were then measured using cumulative increasing concentrations (10^−3 10 μmol/ml) of peptides in the presence of insulin (1 mU/ml). The biological activity of each peptide analogue was measured as the rate of glucose incorporation into muscle glycogen (μmol/g tissue/hr), and represented by the mean±SEM from eight determinations.
To determine the insulin-potentiating effect of the peptide analogues, the rates of incorporation of glucose into muscle glycogen were measured. The rates of glycogen synthesis (μmol/g tissue/hr) were 0.52±0.05, 0.60±0.04, 1.27±0.06 and 1.52±0.07 inresponse to 0.33, 1, 3.33 and 10 mU/ml insulin respectively, as shown in FIG. 1.
The insulin-potentiating effect of the peptide analogues was then observed by studying their dose response. curves for glucose incorporation into glycogen in the presence of 1 mU/ml exogenous insulin. The effects of peptides 1, 3, 4, 6, 7, 8 and 10 were evident at doses higher than 0.01 μmol/ml, and continued to increase with increasing peptide concentration to 1 μmol/ml, as shown in FIGS. 2A and 2B.
The activity of each analogue was assessed by in vitro measurement of glycogen synthesis in muscle, as described above.

[3] = system: Zucker fatty (fa/fa) female rats; assay: Acute oral administration, blood glucose; assay type: in vivo, rat
Protocol: Overnight fasted Zucker fatty (fa/fa) female rats were administered peptide 3 (ADD9903) by oral gavage at a concentration of 20 μmol/kg of body weight. Rats were then immediately anaesthetized with nembutal administered intraperitoneally in order to avoid variations arising due to activity of the rats. Blood samples were collected from the tail vein at time 0 min (immediately after oral gavage and before anaesthetic), 60 min, 120 min and 180 min, and analyzed for blood glucose by the glucose oxidation method using a YSI Model-2300 STAT glucose analyzer (Yellow Spring, Ohio). Six rats were analyzed for each of the control and treated groups.

adipose tissue = assay: Ex vivo glucose transport assay in adipose tissue of chronically treated mice; assay type: cell-based, mouse; conditions: after 14 days treatment
Protocol: (c) Glucose transport assay Glucose transport in adipose tissue extracted from saline-treated and chronically peptide 3-treated mice was analyzed by an ex vivo glucose uptake assay. Adipose tissues was harvested from mice which had received saline (n=5) or peptide 3 (n=4) in the IPGTT, and used for a glucose transport assay. Mice were sacrificed by a lethal injection of pentabarbitone to the heart. Epididymal fat from male mice or peritoneal fat from female mice was used. Adipose tissues were rinsed in saline and then sliced into even pieces for weight determination. Tissues were placed in flasks and incubated in 2 ml KRB buffer (pH 7.4) containing D-glucose (10 mM final concentration) with vigorous agitation at 37° C. for 2 h under an atmosphere of carbogen. All samples were then placed on ice to reduce glycolysis. Tissues were removed from flasks, and the remaining solutions were analyzed for glucose concentrations using a glucose analyzer. Glucose uptake by each tissue sample was calculated, and compared to tissue free buffer controls.

Arg-D-Ala-Phe-Phe-NH2 (R[dA]FF-NH2; N-terminus assumed; SMILES C[C@@H](NC(=O)[C@@H](N)CCCNC(=N)N)C(=O)N[C@@H](Cc1ccccc1)C(=O)N[C@@H](Cc1ccccc1)C(N)=O) [Peptide 3]
plasma insulin level (C57BL/6J ob/ob mice): 17.10 ± 5.99 ng/mL
hypoglycaemic effect (reduction of basal blood glucose level) [1]: significant hypoglycaemic effects
hypoglycaemic effect (reduction of basal blood glucose level) ([1]; listed as Arg-D-Ala-Phe-Phe amide): Increased potency
maximum stimulation of the rate of glycogen synthesis ([2]; 10 μmol/ml peptide, 1 mU/ml insulin): up to 1.44±0.04 mol/g tissue/hr
in vitro glycogen synthesis ([2]; 0.01-1 μmol/ml peptide (p<0.05), FIG. 2A): significantly increased
Activity ([2]; Table 6 (corrected), summary of Table 5): active
decrease in blood glucose, oral compared to intraperitoneal administration ([3]; at 120 min (P<0.005)): more profound decrease
time of maximal decrease in blood glucose ([3]; oral gavage 20 μmol/kg (P<0.005)): 120 min
blood glucose levels compared to control rats ([3]; oral gavage 20 μmol/kg, significant from 60 min (P<0.05)): significantly reduced
more glucose transported than adipose tissue from saline-treated mice (adipose tissue): 38%
glucose transport by adipose tissue (adipose tissue; 10 mM D-glucose, 2 h, 37° C.): 1.67±0.18 nmol/mg tissue/h

Source: US20040054130A1, “Insulin potentiating peptides” (priority 2000, published 2004)
